Reference: article PMC10243363 (ACS chemical neuroscience, 2022)
Counter-ions that a name gives are not always drawn. Like-named read-outs stand apart in the source and are kept apart here.

Assays:
[1] = cited from earlier work
[2] = Weight change under chronic administration; details: 10 mg/kg s.c. twice daily, mice
[3] = test system: mice; experiment: Warm-water tail immersion; type: in vivo, mouse; details: for Time of peak antinociceptive effect: time-course study; for Blocking of the antinociception of 0.1 mg/kg NMF by selective antagonist: nor-BNI, β-FNA 10 mg/kg s.c. 24 h prior, NTI 15 mg/kg s.c. 30 min prior; for Antinociception potency ED50 (95% CL): 20 min after injection; for Antinociceptive effect (%MPE) in single-dose screening: 20 min, vs vehicle
[4] = Caco-2 permeability assay; details: human, Caco-2
[5] = cited from earlier work; remark: listed apart in the source
[6] = target: T1, KOR (Mus musculus, UniProt P33534); experiment: Competitive radioligand binding assay, KOR; details: for Selectivity D/K: ratio of Ki DOR/KOR; for Selectivity M/K: ratio of Ki MOR/KOR
[7] = target: T2, MOR (Mus musculus, UniProt P42866); experiment: [35S]-GTPγS binding assay, mMOR-CHO membrane; type: biochemical; details: for MOR %Emax: %Emax = 100 defined using Emax of 3 μM DAMGO; for MOR %Emax / EC50: mean ± SEM; for EC50: read-out: MOR EC50
[8] = target: DOR (Mus musculus, UniProt P32300); experiment: [35S]-GTPγS binding assay, mDOR-CHO membrane; type: biochemical; details: for DOR %Emax: %Emax = 100 defined using 5 μM SNC80; for DOR %Emax / EC50: mean ± SEM; for EC50: read-out: DOR EC50
[9] = target: T1, KOR; experiment: [35S]-GTPγS binding assay, mKOR-CHO membrane; type: biochemical; details: mean ± SEM; for KOR %Emax: %Emax = 100 defined using 5 μM U50,488H; for EC50: read-out: KOR EC50
[10] = target: T2, MOR; experiment: Competitive radioligand binding assay, MOR; details: ratio of Ki DOR/MOR
[11] = test system: mice; experiment: Spontaneous locomotor activity; details: 30 min
[12] = test system: Caco-2 cell monolayer; experiment: Caco-2 permeability assay; details: 10 μM; ± SEM
[13] = test system: mice; experiment: Tolerance and cross tolerance; details: day 5; 0.1 mg/kg NMF vs 10 mg/kg morphine
[14] = test system: mice; experiment: Respiration by whole-body plethysmography; type: in vivo, mouse; details: 0.1 mg/kg
[15] = test system: rats; details: rat, in vivo, iv
[16] = 0.003 mg/kg; cited from earlier work
[17] = test system: mice; details: cited from earlier work
[18] = test system: monkeys; details: 0.001 mg/kg; cited from earlier work
[19] = 0.03 mg/kg; cited from earlier work

Row | Molecule | Selectivity D/K [6] | Selectivity M/K [6] | MOR %Emax [7] | EC50 [7] | DOR %Emax [8] | EC50 [8] | KOR %Emax [9] | EC50 [9] | Selectivity D/M [10] | other results
1 | CC[C@@H]1CN2CCc3c([nH]c4cccc(OC)c34)[C@H]2C[C@@H]1/C(=C\OC)C(=O)OC [speciociliatine] | – | – | – | – | – | – | – | – | – | PPB [1]: 90-99%
2 | CN1CC[C@]23c4c5ccc(O)c4O[C@H]2[C@@H](O)C=C[C@H]3[C@H]1C5 [Morphine, reference compound] | – | – | – | – | – | – | – | – | – | Weight change [2]: lost weight significantly after only one day; Duration of antinociception ([3]; 10 mg/kg s.c., mice): approximately 3 hours; Time of peak antinociceptive effect ([3]; s.c., mice): around 0.5 h
3 | COC(=O)/C=C/C(=O)N[C@@H]1CC[C@@]2(O)[C@H]3Cc4ccc(O)c5c4[C@@]2(CCN3CC2CC2)[C@H]1O5 [β-FNA, reference compound] | – | – | – | – | – | – | – | – | – | Blocking of the antinociception of 0.1 mg/kg NMF by selective antagonist [3]: not able to block the antinociception
4 | CC(CCc1ccccc1)NCC(O)c1ccc(O)c(C(N)=O)c1 (stereo not drawn) [Labetalol] | – | – | – | – | – | – | – | – | – | Papp A→B at 10 µM [4]: 18.5 ± 0.3 ×10⁻⁶ cm/s; Papp B→A at 10 µM [4]: 34.2 ± 0.4 ×10⁻⁶ cm/s; %fa: extent of absorption in humans [5]: 90%; %fa: extent of absorption in humans ([5]; listed as labetalol): 90%
5 | Cl.O=C(/C=C/c1ccoc1)N[C@@H]1CC[C@@]2(O)[C@H]3Cc4ccc(O)c5c4[C@@]2(CCN3CC2CC2)[C@H]1O5 [Compound 10, (2E)-N-[6β-17-(Cyclopropylmethyl)-3,14-dihydroxy-4,5α-epoxy-morphinan-6-yl]-3-(3-furanyl)-2-propenamide hydrochloride] | 26 | 1.8 | 40.8 ± 2.2% | 1.36 ± 0.14 nM | 103 ± 11% | 24.8 ± 4.7 nM | 95.2 ± 4.9% | 0.36 ± 0.02 nM | 15 | Antinociception potency ED50 (95% CL) ([3]; mice, s.c.): 2.414 (1.720 - 3.388) mg/kg
6 | CC(C)NCC(O)COc1cccc2ccccc12 (stereo not drawn) [Propranolol] | – | – | – | – | – | – | – | – | – | Papp A→B at 10 µM [4]: 23.8 ± 0.4 ×10⁻⁶ cm/s; Papp B→A at 10 µM [4]: 25.6 ± 0.7 ×10⁻⁶ cm/s
7 | Oc1ccc2c3c1O[C@H]1c4[nH]c5ccccc5c4C[C@@]4(O)[C@@H](C2)N(CC2CC2)CC[C@]314 [NTI, reference compound] | – | – | – | – | – | – | – | – | – | Blocking of the antinociception of 0.1 mg/kg NMF by selective antagonist [3]: able to reduce the antinociception
8 | CNC(=C[N+](=O)[O-])NCCSCc1ccc(CN(C)C)o1 [Ranitidine] | – | – | – | – | – | – | – | – | – | Papp A→B at 10 µM [4]: 0.5 ± 0.02 ×10⁻⁶ cm/s; %fa: extent of absorption in humans [5]: 50%
9 | CN(C(=O)/C=C/c1ccoc1)[C@@H]1CC[C@@]2(O)[C@H]3Cc4ccc(O)c5c4[C@@]2(CCN3CC2CC2)[C@H]1O5.Cl [Compound 11, (2E)-N-[6β-17-(Cyclopropylmethyl)-3,14-dihydroxy-4,5α-epoxy-morphinan-6-yl]-3-(3-furanyl)-N-methyl-2-propenamide hydrochloride] | – | – | – | – | – | – | – | – | – | Activity-reducing (sedative) effects on locomotor activity ([11]; 0.1 mg/kg or 0.5 mg/kg s.c.): no significant activity-reducing effects; Hyperactivity in locomotor activity test ([11]; s.c.): no significant hyperactivity; B-A Permeability [12]: 31.8 ± 0.8 x10^−6 cm/s; Antinociceptive effect in morphine-tolerated mice (cross tolerance) [13]: retained a higher antinociceptive effect than morphine; Duration of antinociception ([3]; 0.1 mg/kg s.c., mice): approximately 3 hours; Calculated ED90 of antinociception ([3]; mice, s.c.): 0.1 mg/kg; Antinociception potency ED50 (95% CL) ([3]; mice, s.c.): 0.037 (0.014 - 0.096) mg/kg; Time of peak antinociceptive effect ([3]; s.c., mice): around 0.5 h; Effects on respiration (frequency, minute volume, tidal volume) [14]: no significant effects on the respiration; Reinforcing effect in self-administration (number of infusions vs saline) [15]: non-reinforcer
10 | CN(C(=O)/C=C/c1ccoc1)[C@@H]1CC[C@@]2(O)[C@H]3Cc4ccc(O)c5c4[C@@]2(CCN3CC2CC2)[C@H]1O5 [Compound 12, (2E)-N-[6β-17-(Cyclopropylmethyl)-3,14-dihydroxy-4,5α-epoxy-morphinan-6-yl]-3-(3-furanyl)-N-methyl-2-propenamide hydrochloride] | – | – | – | – | moderate-to-high efficacy | – | – | – | – | Emax ([7]; read-out: MOR %Emax): 30.3 ± 3.7%; Action time [16]: 3 to 4 h; Emax ([8]; read-out: DOR %Emax): 65.7 ± 6.4%; Antinociceptive effect in morphine-tolerated mice [17]: retained its antinociceptive effect; Respiratory depression [18]: did not induced respiratory depression; Action time [19]: less than 2 hours
11 | Cl.O=C(/C=C/c1ccoc1)N[C@@H]1CC[C@@]2(O)[C@H]3Cc4cccc5c4[C@@]2(CCN3CC2CC2)[C@H]1O5 [Compound 14, (2E)-N-[6β-17-(Cyclopropylmethyl)-4,5α-epoxy-14-hydroxy-morphinan-6-yl]-3-(3-furanyl)-2-propenamide hydrochloride] | 345 | 26 | 27.7 ± 1.1% | 167 ± 23 nM | 107 ± 13% | 1500 ± 140 nM | 97.9 ± 2.4% | 46 ± 6.8 nM | 14 | Antinociception potency ED50 (95% CL) ([3]; mice, s.c.): 3.827 (1.224 -11.97) mg/kg
12 | CN(C(=O)/C=C/c1ccoc1)[C@@H]1CC[C@@]2(O)[C@H]3Cc4cccc5c4[C@@]2(CCN3CC2CC2)[C@H]1O5.Cl [Compound 16, (2E)-N-[6β-17-(Cyclopropylmethyl)-4,5α-epoxy-14-hydroxy-morphinan-6-yl]-3-(3-furanyl)-N-methyl-2-propenamide hydrochloride] | 343 | 42 | 17.5 ± 4.4% | 1800 ± 1100 nM | 107 ± 8% | 2100 ± 400 nM | 94.6 ± 2.9% | 59 ± 7.1 nM | 8.1 | Antinociception potency ED50 (95% CL) ([3]; mice, s.c.): 1.610 (1.057 - 2.452) mg/kg
13 | mitragynine | – | – | – | – | – | – | – | – | – | PPB [1]: 90-99%
14 | Cl.O=C(/C=C/c1ccoc1)N[C@H]1CC[C@@]2(O)[C@H]3Cc4ccc(O)c5c4[C@@]2(CCN3CC2CC2)[C@H]1O5 [Compound 9, (2E)-N-[6α-17-(Cyclopropylmethyl)-3,14-dihydroxy-4,5α-epoxy-morphinan-6-yl]-3-(3-furanyl)-2-propenamide hydrochloride] | 10 | 0.6 | 25.9 ± 1.0% | 8.41 ± 0.98 nM | 108 ± 6% | 83.6 ± 28.8 nM | 73.7 ± 2.5% | 15.3 ± 1.9 nM | 16 | Antinociceptive effect (%MPE) in single-dose screening ([3]; 10 mg/kg s.c., mice): no significant increase of %MPE
15 | Cl.O=C(/C=C/c1ccoc1)N[C@H]1CC[C@@]2(O)[C@H]3Cc4cccc5c4[C@@]2(CCN3CC2CC2)[C@H]1O5 [Compound 13, (2E)-N-[6α-17-(Cyclopropylmethyl)-4,5α-epoxy-14-hydroxy-morphinan-6-yl]-3-(3-furanyl)-2-propenamide hydrochloride] | 1.7 | 1.9 | 22.8 ± 2.1% | 283 ± 49 nM | 102 ± 8% | 714 ± 87 nM | 103 ± 2% | 135 ± 25 nM | 0.9 | Antinociceptive effect (%MPE) in single-dose screening ([3]; 10 mg/kg s.c., mice): absence of antinociception
16 | Oc1ccc2c3c1O[C@H]1c4[nH]c5c(c4C[C@@]4(O)[C@@H](C2)N(CC2CC2)CC[C@]314)C[C@@]1(O)[C@H]2Cc3ccc(O)c4c3[C@@]1(CCN2CC1CC1)[C@H]5O4 [nor-BNI, reference compound] | – | – | – | – | – | – | – | – | – | Blocking of the antinociception of 0.1 mg/kg NMF by selective antagonist [3]: able to reduce the antinociception
17 | CN(C(=O)/C=C/c1ccoc1)[C@H]1CC[C@@]2(O)[C@H]3Cc4cccc5c4[C@@]2(CCN3CC2CC2)[C@H]1O5.Cl [Compound 15, (2E)-N-[6a-17-(Cyclopropylmethyl)-4,5a-epoxy-14-hydroxy-morphinan-6-yl]-3-(3-furanyl)-N-methyl-2-propenamide hydrochloride] | 249 | 21 | 55.8 ± 2.9% | 132 ± 10 nM | 108 ± 7% | 242 ± 28 nM | 98.4 ± 2.4% | 2.52 ± 0.38 nM | 12 | Antinociception potency ED50 (95% CL) ([3]; mice, s.c.): 0.341 (0.196 - 0.604) mg/kg
